pIC50: −log10 of the molar value.

T1 sequence (Q14191 with tags, fused parts or gaps L1074F limits assumed): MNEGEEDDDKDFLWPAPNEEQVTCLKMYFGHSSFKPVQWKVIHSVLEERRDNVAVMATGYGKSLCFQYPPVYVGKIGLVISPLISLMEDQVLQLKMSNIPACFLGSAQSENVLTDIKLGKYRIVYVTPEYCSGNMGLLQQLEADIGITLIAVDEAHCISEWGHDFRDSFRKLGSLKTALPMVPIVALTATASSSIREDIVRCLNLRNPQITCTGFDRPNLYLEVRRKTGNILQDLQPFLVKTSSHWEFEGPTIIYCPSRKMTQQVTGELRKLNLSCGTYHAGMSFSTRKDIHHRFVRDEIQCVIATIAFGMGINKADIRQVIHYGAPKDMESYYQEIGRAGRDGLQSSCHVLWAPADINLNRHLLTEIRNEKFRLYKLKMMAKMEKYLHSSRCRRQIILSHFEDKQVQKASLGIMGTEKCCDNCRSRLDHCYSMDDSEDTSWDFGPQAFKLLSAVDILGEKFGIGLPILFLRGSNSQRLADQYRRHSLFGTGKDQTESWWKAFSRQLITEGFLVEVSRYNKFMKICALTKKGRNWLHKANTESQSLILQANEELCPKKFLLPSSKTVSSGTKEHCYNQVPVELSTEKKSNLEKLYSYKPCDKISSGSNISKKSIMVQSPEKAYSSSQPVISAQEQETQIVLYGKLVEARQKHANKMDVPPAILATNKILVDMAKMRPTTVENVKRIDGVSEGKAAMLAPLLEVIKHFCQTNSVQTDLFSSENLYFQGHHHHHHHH

One experiment concerns the target T1, human Werner helicase (WRN-BV08, Uniprot Q14191, amino acids 517-1235 with L1074F point mutation) (Homo sapiens, UniProt Q14191, L1074F).
T1 construct: Uniprot Q14191, amino acids 517-1235 with L1074F point mutation; TEV-cleavable 8×His (C, cleaved yes); made in house; host or cells: Sf9 insect cells (baculovirus)
Put plainly: WRN (BV08) ADP-Glo Assay. Particulars: 0.15 nM WRN, 5 μM ATP, 0.1 nM DNA duplex, 15 min preincubation, 60 min at 25° C., pH 7.5, 1% DMSO; read-out: ADP-Glo_hWRN_IC50. Type of experiment: biochemical. An outline of the steps: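 ADP-Glo luminescence read-out of ATP hydrolysis. Conditions: 0.15 nM WRN, 5 μM ATP, 0.1 nM DNA duplex, 1% DMSO, 60 min at 25 °C after 15 min compound preincubation. Max/min controls were DMSO and 20 μM NSC-617145; IC50 from four-parameter fit.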
A general note: In ADP-Glo the light output rises with the ADP produced.
`CCN(C)C(=O)C(C(=O)N(Cc1ccnc(C(C)(C)O)c1)C1C=CS(=O)(=O)C1)c1ccc(-c2ccc(F)c(F)c2)cc1F` (stereo not drawn) [I-75, N′-(1,1-dioxo-2,3-dihydro-1lambda6-thiophen-3-yl)-N-ethyl-N′-{[2-(2-hydroxypropan-2-yl)pyridin-4-yl]methyl}-N-methyl-2-{3,3′,4′-trifluoro-[1,1′-biphenyl]-4-yl}propanediamide]: the pIC50 was more than 6.30.

Turning to `COc1cc(CN(C(=O)C(OCCS(C)(=O)=O)c2ccc(-c3ccc(F)c(F)c3)cc2F)[C@@H]2C=CS(=O)(=O)C2)ccn1` (single isomer, unassigned) [I-710, (2R*)-N-[(3R)-1,1-dioxo-2,3-dihydro-1lambda6-thiophen-3-yl]-2-(2-methanesulfonylethoxy)-N-[(2-methoxypyridin-4-yl)methyl]-2-{3,3′,4′-trifluoro-[1,1′-biphenyl]-4-yl}acetamide], the pIC50 is less than 4.30.

In the case of `CC(C)(O)c1cc(CN(C(=O)Cc2ccc(OC(F)(F)C(F)(F)F)cc2)C2C=CS(=O)(=O)C2)ccn1` (single isomer, unassigned) [I-661], the pIC50 is more than 6.30.

On to `O=C(Cc1ccc(-n2cccc2)cc1)N(Cc1ccccc1)C1C=C(CO)S(=O)(=O)C1` (stereo not drawn) [I-373, N-benzyl-N-[5-(hydroxymethyl)-1,1-dioxo-2,3-dihydro-1lambda6-thiophen-3-yl]-2-[4-(1H-pyrrol-1-yl)phenyl]acetamide], for which the pIC50 was less than 4.30.

In the case of `O=C(Cc1ccc(-n2cccc2)cc1)N(Cc1cc(F)ccc1F)C1C=CS(=O)(=O)C1` (stereo not drawn) [I-278, N-[(2,5-difluorophenyl)methyl]-N-(1,1-dioxo-2,3-dihydro-1lambda6-thiophen-3-yl)-2-[4-(1H-pyrrol-1-yl)phenyl]acetamide], the pIC50 was 4.30 to 5.00.

On to `CNC(=O)C(C(=O)N(Cc1ccnc(C(C)(C)O)c1)[C@@H]1C=CS(=O)(=O)C1)c1ccc(-c2ccc(F)c(F)c2)cc1F` (stereo partly drawn) [I-3, N1-(1,1-dioxido-2,3-dihydrothiophen-3-yl)-N1-((2-(2-hydroxypropan-2-yl)pyridin-4-yl)methyl)-N3-methyl-2-(3,3′,4′-trifluoro-[1,1′-biphenyl]-4-yl)malonamide], for which the pIC50 was more than 6.30.

For the compound `O=C(Cc1ccc2c(c1)COCC2)N(Cc1ccncc1)C1C=CS(=O)(=O)C1` (stereo not drawn) [I-642, 2-(3,4-dihydro-1H-2-benzopyran-7-yl)-N-(1,1-dioxo-2,3-dihydro-1lambda6-thiophen-3-yl)-N-[(pyridin-4-yl)methyl]acetamide], the pIC50 was less than 4.30.

With `CC(C)(O)c1cc(CN(C(=O)C(c2ccc(-c3ccc(F)c(F)c3)cc2F)n2ccnn2)[C@@H]2C=CS(=O)(=O)C2)ccn1` (single isomer, unassigned) [I-800], the pIC50 was more than 6.30.

For `COc1cc(CN(C(=O)C(c2ccc(-c3ccc(F)c(F)c3)cc2F)n2cc(C(C)(C)O)cn2)[C@@H]2C=CS(=O)(=O)C2)ccn1` (stereo partly drawn) [I-758, N-[(3R)-1,1-dioxo-2,3-dihydro-1lambda6-thiophen-3-yl]-2-[4-(2-hydroxypropan-2-yl)-1H-pyrazol-1-yl]-N-[(2-methoxypyridin-4-yl)methyl]-2-{3,3′,4′-trifluoro-[1,1′-biphenyl]-4-yl}acetamide], the pIC50 was 5.30 to 6.30.

`COc1ccc(CN(C(=O)Cc2ccc(-n3cccc3)cc2)C2C=CS(=O)(=O)C2)cc1` (stereo not drawn) [I-219, N-(1,1-dioxo-2,3-dihydro-1lambda6-thiophen-3-yl)-N-[(4-methoxyphenyl)methyl]-2-[4-(1H-pyrrol-1-yl)phenyl]acetamide]: the pIC50 was 5.00 to 5.30.

On to `O=C(Cc1ccc(-n2cccc2)cc1)N(Cc1ccc2nccn2c1)C1C=CS(=O)(=O)C1` (stereo not drawn) [I-361, N-(1,1-dioxo-2,3-dihydro-1lambda6-thiophen-3-yl)-N-({imidazo[1,2-a]pyridin-6-yl}methyl)-2-[4-(1H-pyrrol-1-yl)phenyl]acetamide], for which the pIC50 was 4.30 to 5.00.

With `CC(F)(F)c1csc(CN(C(=O)Cc2ccc(S(F)(F)(F)(F)F)cc2)C2C=CS(=O)(=O)C2)n1` (stereo not drawn) [I-625, N-{[4-(1,1-difluoroethyl)-1,3-thiazol-2-yl]methyl}-N-(1,1-dioxo-2,3-dihydro-1lambda6-thiophen-3-yl)-2-[4-(pentafluoro-lambda6-sulfanyl)phenyl]acetamide], the pIC50 was more than 6.30.

On to `O=C(C1CCc2ccc(Br)cc21)N(Cc1ccncc1)C1C=CS(=O)(=O)C1` (stereo not drawn) [I-658, 6-bromo-N-(1,1-dioxo-2,3-dihydro-1lambda6-thiophen-3-yl)-N-[(pyridin-4-yl)methyl]-2,3-dihydro-1H-indene-1-carboxamide], for which the pIC50 is less than 4.30.

`CC(C)(O)c1cc(CN(C(=O)Cc2ccc(S(F)(F)(F)(F)F)cc2)C2C=CS(=O)(=O)C2)ccn1` (stereo not drawn) [I-39, N-(1,1-dioxo-2,3-dihydro-1lambda6-thiophen-3-yl)-N-{[2-(2-hydroxypropan-2-yl)pyridin-4-yl]methyl}-2-[4-(pentafluoro-lambda6-sulfanyl)phenyl]acetamide]: the pIC50 was more than 6.30.

For `CC(C)(O)c1cc(CN(C(=O)C2Cc3cc(-c4ccc(F)cc4)ccc32)C2C=CS(=O)(=O)C2)ccn1` (stereo not drawn) [I-223, N-(1,1-dioxo-2,3-dihydro-1lambda6-thiophen-3-yl)-3-(4-fluorophenyl)-N-{[2-(2-hydroxypropan-2-yl)pyridin-4-yl]methyl}bicyclo[4.2.0]octa-1,3,5-triene-7-carboxamide], the pIC50 is 5.00 to 5.30.

For the compound `O=C(Cn1cc(-c2ccc(F)c(F)c2)cn1)N(Cc1ccnc(OCCN2CCOCC2)c1)C1C=CS(=O)(=O)C1` (stereo not drawn) [I-761, 2-[4-(3,4-difluorophenyl)-1H-pyrazol-1-yl]-N-(1,1-dioxo-2,3-dihydro-1lambda6-thiophen-3-yl)-N-({2-[2-(morpholin-4-yl)ethoxy]pyridin-4-yl}methyl)acetamide], the pIC50 was more than 6.30.

On to `CC(C)(O)c1cc(CN(C(=O)Cn2cc(-c3cccc(F)c3)cn2)C2C=CS(=O)(=O)C2)ccn1` (stereo not drawn) [I-59, N-(1,1-dioxo-2,3-dihydro-1lambda6-thiophen-3-yl)-2-[4-(3-fluorophenyl)-1H-pyrazol-1-yl]-N-{[2-(2-hydroxypropan-2-yl)pyridin-4-yl]methyl}acetamide], for which the pIC50 is more than 6.30.

On to `COCCOc1cc(CN(C(=O)Cc2ccc(S(F)(F)(F)(F)F)cc2)C2C=CS(=O)(=O)C2)ccn1` (stereo not drawn) [I-719, N-(1,1-dioxo-2,3-dihydro-1lambda6-thiophen-3-yl)-N-{[2-(2-methoxyethoxy)pyridin-4-yl]methyl}-2-[4-(pentafluoro-lambda6-sulfanyl)phenyl]acetamide], for which the pIC50 is more than 6.30.

For the compound `CC(C)(O)c1cc(CN(C(=O)C(OCC2CC2)c2ccc(-c3ccc(F)c(F)c3)cc2F)[C@@H]2C=CS(=O)(=O)C2)ccn1` (single isomer, unassigned) [I-815], the pIC50 is more than 6.30.

Turning to `O=C(Cc1ccc(C(F)(F)F)c(Cl)c1)N(Cc1ccncc1)C1C=CS(=O)(=O)C1` (stereo not drawn) [I-299, 2-[3-chloro-4-(trifluoromethyl)phenyl]-N-(1,1-dioxo-2,3-dihydro-1lambda6-thiophen-3-yl)-N-[(pyridin-4-yl)methyl]acetamide], the pIC50 was 4.30 to 5.00.

Take `Cc1cccn1-c1ccc(CC(=O)N(Cc2cccnn2)C2C=CS(=O)(=O)C2)c(F)c1` (stereo not drawn) [I-224, N-(1,1-dioxo-2,3-dihydro-1lambda6-thiophen-3-yl)-2-[2-fluoro-4-(2-methyl-1H-pyrrol-1-yl)phenyl]-N-[(pyridazin-3-yl)methyl]acetamide]: the pIC50 is 5.00 to 5.30.

For `C#CCCCC(=O)N1CCN(c2ccc(CN(C(=O)Cc3ccc(-n4cccc4)cc3)C3C=CS(=O)(=O)C3)cc2)CC1` (stereo not drawn) [I-238, N-(1,1-dioxo-2,3-dihydro-1lambda6-thiophen-3-yl)-N-({4-[4-(hex-5-ynoyl)piperazin-1-yl]phenyl}methyl)-2-[4-(1H-pyrrol-1-yl)phenyl]acetamide], the pIC50 was 5.30 to 6.30.

For the compound `O=C(CN1CCC(C(F)(F)F)CC1)N(Cc1ccncc1)C1C=CS(=O)(=O)C1` (stereo not drawn) [I-572, N-(1,1-dioxo-2,3-dihydro-1lambda6-thiophen-3-yl)-N-[(pyridin-4-yl)methyl]-2-[4-(trifluoromethyl)piperidin-1-yl]acetamide], the pIC50 was less than 4.30.

As for `O=C(Cn1cc(C2CCOC2)cn1)N(Cc1ccncc1)C1C=CS(=O)(=O)C1` (stereo not drawn) [I-407, N-(1,1-dioxo-2,3-dihydro-1lambda6-thiophen-3-yl)-2-[4-(oxolan-3-yl)-1H-pyrazol-1-yl]-N-[(pyridin-4-yl)methyl]acetamide], the pIC50 was less than 4.30.

The experiment is the same for the next values; noted with them: ADP-Glo_hWRN_IC50, 0.15 nM WRN, 5 μM ATP, 0.1 nM DNA duplex, 15 min preincubation, 60 min at 25° C., pH 7.5, 1% DMSO.
In turn, `O=C(CN1CC=C(c2ccccc2)CC1)N(c1ccccc1)C1C=CS(=O)(=O)C1` (stereo not drawn) [I-430, N-(1,1-dioxo-2,3-dihydro-1lambda6-thiophen-3-yl)-N-phenyl-2-(4-phenyl-1,2,3,6-tetrahydropyridin-1-yl)acetamide] had a pIC50 of less than 4.30.

As to `O=C(c1cc(-c2ccc(F)cc2)ns1)N(Cc1ccncc1)C1C=CS(=O)(=O)C1` (stereo not drawn) [I-615, N-(1,1-dioxo-2,3-dihydro-1lambda6-thiophen-3-yl)-3-(4-fluorophenyl)-N-[(pyridin-4-yl)methyl]-1,2-thiazole-5-carboxamide], the pIC50 was less than 4.30.

`O=C(CN1CC=C(c2ccccc2)CC1)N(Cc1ccncc1)C1C=CS(=O)(=O)C1` (stereo not drawn) [I-478, N-(1,1-dioxo-2,3-dihydro-1lambda6-thiophen-3-yl)-2-(4-phenyl-1,2,3,6-tetrahydropyridin-1-yl)-N-[(pyridin-4-yl)methyl]acetamide] had a pIC50 of less than 4.30.

The values above are taken from US20260297070A1, “CYCLIC [COMPOUND LEFT OUT] WRN INHIBITORS” (Nimbus Wadjet, Inc., priority 2023, published 2026).
